Experimental data from ChEMBL document CHEMBL4627250, “Suitable fusion of N-terminal heptad repeats to achieve covalently stabilized potent N-peptide inhibitors of HIV-1 infection” (Bioorg Med Chem, 2020).

Assay: Thermal stability of compound assessed as melting temperature at 10 uM
Type: physicochemical

Tm | Substance
72 °C | H-RIQQIEQKIHHIEQRIQQIEQLLQLTVWGIKQLQARIL-OH
74 °C | H-RIQQIEQKIHHIEQRIQQIEQRIEAQQHLLQLTVWGIKQLQARIL-OH
82 °C | H-RIQQIEQKIHHIEQRIQQIEQRISGIVQQQNNLLRIEAQQHLLQLTVWGIKQLQARIL-OH
